{"source": "patent US20240285571A1", "about": "“METHODS OF TREATING BONE INFECTIONS” (MICROBION CORPORATION, priority 2020, published 2024)", "type_in_all_cases": "cell-based", "key": {"Escherichia coli": {"system": "Escherichia coli", "experiment": "Broth microdilution MIC (Example 6)", "details": "Escherichia coli, read-out: MIC", "description": "(§1) Test Compounds: The test agents BisEDT (MB-1-B3; Lot No. ED268-1-11-01), MB-2B, and MB-6 were stored at room temperature, in the dark, until assayed.\n(§2) For testing daptomycin, calcium was supplemented with […] Ca^2+, resulting in a final concentration of […] Ca^2+ (2, 3).\n(§3) MIC Assay Procedure: MIC values were determined using a broth microdilution procedure described by CLSI (2, 3).\n(§4) The Biomek 2000 was then used to make 2-fold serial dilutions in the mother plates from column 1 through column 11. The wells of column 12 contained no drug and served as the organism growth control wells for the assay.\n(§5) The test panels were prepared on the Biomek FX instrument which transferred 2 μL of drug solution from each well of a mother plate to the corresponding well of each daughter plate in a single step.\n(§6) A standardized inoculum of each test organism was prepared per CLSI methods to equal a 0.5 McFarland standard, followed by a dilution of 1:20. The plates were then inoculated with 10 μL of the diluted inoculum using the Biomek 2000 from low to high drug concentration resulting in a final concentration of approximately 5×10^5 CFU/mL.\n(§7) Plates were stacked 3-4 high, covered with a lid on the top plate, placed into plastic bags, and incubated at 35° C. for 16 to 20 hr (vancomycin was read for S. aureus after 24 hr incubation time). The MIC was recorded as the lowest concentration of drug that inhibited visible growth of the organism."}, "Klebsiella pneumoniae": {"system": "Klebsiella pneumoniae", "experiment": "Broth microdilution MIC (Example 6)", "details": "Klebsiella pneumoniae, read-out: MIC", "description": "as §1, §2, §3, §4, §5, §6, §7"}, "Pseudomonas aeruginosa": {"system": "Pseudomonas aeruginosa", "experiment": "Broth microdilution MIC (Example 6)", "details": "Pseudomonas aeruginosa, read-out: MIC", "description": "as §1, §2, §3, §4, §5, §6, §7"}, "Acinetobacter baumannii": {"system": "Acinetobacter baumannii", "experiment": "Broth microdilution MIC (Example 6)", "details": "Acinetobacter baumannii, read-out: MIC", "summary_of_the_method": "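CLSI broth microdilution in cation-adjusted Mueller Hinton broth, test agents 0.06-64 μg/mL from DMSO stocks, inoculum approx. 5×10^5 CFU/mL. Incubation 35° C for 16–20 hr; MIC taken as lowest concentration inhibiting visible growth.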"}, "[1]": {"system": "relevant ATCC QC organisms", "experiment": "Broth microdilution MIC, QC (Example 6)", "details": "read-out: MIC", "summary_of_the_method": "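QC strains were tested per CLSI broth microdilution in cation-adjusted Mueller Hinton broth, with Ca2+ supplemented for daptomycin, at about 5×10^5 CFU/mL. Incubation was at 35° C for 16–20 hr, or 24 hr for vancomycin against S. aureus. The MIC was the lowest concentration inhibiting visible growth.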"}}, "note": "Like-named read-outs stand apart in the source and are kept apart here.", "data": [{"smiles": "C[C@H]1COc2c(N3CCN(C)CC3)c(F)cc3c(=O)c(C(=O)O)cn1c23", "note": "[Levofloxacin]", "values": [{"measurement": "MIC", "setting": "Escherichia coli; ATCC35218, E. coli ATCC 35218, ESBL", "result": "≤ 0.008", "unit": "µg/mL"}, {"measurement": "MIC", "setting": "Escherichia coli; ATCCBAA2471, E. coli ATCC BAA-2471, NDM", "result": "> 8", "unit": "µg/mL"}, {"measurement": "MIC", "setting": "Escherichia coli; E. coli CDC 114, ESBL/KPC", "result": 4, "unit": "µg/mL"}, {"measurement": "MIC", "setting": "Escherichia coli; E. coli CDC 118, ESBL/NDM", "result": 8, "unit": "µg/mL"}, {"measurement": "MIC", "setting": "Escherichia coli; E. coli CDC 435, NDM", "result": "> 8", "unit": "µg/mL"}, {"measurement": "MIC", "setting": "Escherichia coli; E. coli CDC 451, KPC", "result": "> 8", "unit": "µg/mL"}, {"measurement": "MIC", "setting": "Escherichia coli; E. coli CDC 503, ESBL/NDM", "result": "> 8", "unit": "µg/mL"}, {"measurement": "MIC", "setting": "Escherichia coli; E. coli MMX 5745, KPC", "result": 8, "unit": "µg/mL"}, {"measurement": "MIC", "setting": "Escherichia coli; E. coli MMX 5755, ESBL", "result": 8, "unit": "µg/mL"}, {"measurement": "MIC", "setting": "Escherichia coli; E. coli MMX 5756, ESBL", "result": 4, "unit": "µg/mL"}, {"measurement": "MIC", "setting": "Escherichia coli; E. coli MMX 5758, ESBL", "result": 8, "unit": "µg/mL"}, {"measurement": "MIC", "setting": "Klebsiella pneumoniae; ATCCBAA1705, K. pneumoniae ATCC BAA-1705, ESBL/KPC", "result": "> 8", "unit": "µg/mL"}, {"measurement": "MIC", "setting": "Klebsiella pneumoniae; K. pneumoniae CDC 112, KPC", "result": 4, "unit": "µg/mL"}, {"measurement": "MIC", "setting": "Klebsiella pneumoniae; K. pneumoniae CDC 113, ESBL/KPC", "result": 4, "unit": "µg/mL"}, {"measurement": "MIC", "setting": "Klebsiella pneumoniae; K. pneumoniae CDC 115, ESBL/KPC", "result": "> 8", "unit": "µg/mL"}, {"measurement": "MIC", "setting": "Klebsiella pneumoniae; K. pneumoniae CDC 120, ESBL/KPC", "result": "> 8", "unit": "µg/mL"}, {"measurement": "MIC", "setting": "Klebsiella pneumoniae; K. pneumoniae CDC 126, ESBL/KPC", "result": 0.015, "unit": "µg/mL"}, {"measurement": "MIC", "setting": "Klebsiella pneumoniae; K. pneumoniae CDC 129, ESBL/KPC", "result": "> 8", "unit": "µg/mL"}, {"measurement": "MIC", "setting": "Klebsiella pneumoniae; K. pneumoniae CDC 135, ESBL/VIM", "result": "> 8", "unit": "µg/mL"}, {"measurement": "MIC", "setting": "Klebsiella pneumoniae; K. pneumoniae CDC 138, ESBL/NDM", "result": "> 8", "unit": "µg/mL"}, {"measurement": "MIC", "setting": "Klebsiella pneumoniae; K. pneumoniae CDC 158, ESBL/NDM/OXA", "result": 4, "unit": "µg/mL"}, {"measurement": "MIC", "setting": "Klebsiella pneumoniae; K. pneumoniae MMX 9029, ESBL", "result": 0.12, "unit": "µg/mL"}, {"measurement": "MIC", "setting": "Pseudomonas aeruginosa; P. aeruginosa isolate CDC 230, β-lactamase type VIM/OXA", "result": 8, "unit": "µg/mL"}, {"measurement": "MIC", "setting": "Pseudomonas aeruginosa; P. aeruginosa isolate CDC 231, β-lactamase type KPC/OXA", "result": "> 8", "unit": "µg/mL"}, {"measurement": "MIC", "setting": "Pseudomonas aeruginosa; P. aeruginosa isolate CDC 241, β-lactamase type IMP/OXA", "result": 8, "unit": "µg/mL"}, {"measurement": "MIC", "setting": "Pseudomonas aeruginosa; P. aeruginosa isolate CDC 246, β-lactamase type NDM/OXA", "result": "> 8", "unit": "µg/mL"}, {"measurement": "MIC", "setting": "Pseudomonas aeruginosa; P. aeruginosa isolate CDC 250, β-lactamase type NDM/OXA", "result": "> 8", "unit": "µg/mL"}, {"measurement": "MIC", "setting": "Pseudomonas aeruginosa; P. aeruginosa isolate CDC 356, β-lactamase type KPC", "result": 0.12, "unit": "µg/mL"}, {"measurement": "MIC", "setting": "Pseudomonas aeruginosa; P. aeruginosa isolate CDC 439, β-lactamase type IMP", "result": 8, "unit": "µg/mL"}, {"measurement": "MIC", "setting": "Pseudomonas aeruginosa; P. aeruginosa isolate CDC 444, β-lactamase type VIM", "result": 8, "unit": "µg/mL"}, {"measurement": "MIC", "setting": "Pseudomonas aeruginosa; P. aeruginosa isolate CDC 457, β-lactamase type VIM", "result": "> 8", "unit": "µg/mL"}, {"measurement": "MIC", "setting": "Pseudomonas aeruginosa; P. aeruginosa isolate CDC 516, β-lactamase type KPC/AmpC", "result": 0.25, "unit": "µg/mL"}, {"measurement": "MIC", "setting": "Pseudomonas aeruginosa; P. aeruginosa isolate CDC 518, β-lactamase type KPC/AmpC", "result": "> 8", "unit": "µg/mL"}, {"measurement": "MIC", "setting": "Acinetobacter baumannii; A. baumannii isolate CDC 273, β-lactamase type ESBL/OXA", "result": "> 8", "unit": "µg/mL"}, {"measurement": "MIC", "setting": "Acinetobacter baumannii; A. baumannii isolate CDC 274, β-lactamase type ESBL/OXA", "result": 8, "unit": "µg/mL"}, {"measurement": "MIC", "setting": "Acinetobacter baumannii; A. baumannii isolate CDC 275, β-lactamase type ESBL/OXA", "result": 4, "unit": "µg/mL"}, {"measurement": "MIC", "setting": "Acinetobacter baumannii; A. baumannii isolate CDC 277, β-lactamase type ESBL/OXA", "result": 8, "unit": "µg/mL"}, {"measurement": "MIC", "setting": "Acinetobacter baumannii; A. baumannii isolate CDC 284, β-lactamase type ESBL/OXA", "result": 8, "unit": "µg/mL"}, {"measurement": "MIC", "setting": "Acinetobacter baumannii; A. baumannii isolate CDC 307, β-lactamase type OXA", "result": 8, "unit": "µg/mL"}, {"measurement": "MIC", "setting": "Acinetobacter baumannii; A. baumannii isolate CDC 308, β-lactamase type ESBL/OXA", "result": 4, "unit": "µg/mL"}, {"measurement": "MIC", "setting": "Acinetobacter baumannii; A. baumannii isolate CDC 311, β-lactamase type OXA", "result": 2, "unit": "µg/mL"}, {"measurement": "MIC", "setting": "Acinetobacter baumannii; A. baumannii isolate CDC 312, β-lactamase type OXA", "result": 2, "unit": "µg/mL"}, {"measurement": "MIC", "setting": "Acinetobacter baumannii; A. baumannii isolate CDC 313, β-lactamase type ESBL/OXA", "result": 2, "unit": "µg/mL"}, {"measurement": "MIC", "setting": "Acinetobacter baumannii; NCTC13304, A. baumannii isolate NCTC 13304, β-lactamase type OXA", "result": 1, "unit": "µg/mL"}, {"measurement": "MIC", "setting": "[1]; Escherichia coli, ATCC25922, E. coli ATCC 25922", "result": "≤ 0.008", "unit": "µg/mL"}, {"measurement": "MIC", "setting": "[1]; Escherichia coli, ATCC35218, E. coli ATCC 35218", "result": "≤ 0.008", "unit": "µg/mL"}, {"measurement": "MIC", "setting": "[1]; Klebsiella pneumoniae, ATCCBAA1705, K. pneumoniae ATCC BAA-1705", "result": "> 8", "unit": "µg/mL"}, {"measurement": "MIC", "setting": "[1]; Pseudomonas aeruginosa, ATCC27853, P. aeruginosa ATCC 27853", "result": 0.5, "unit": "µg/mL"}, {"measurement": "MIC", "setting": "[1]; Staphylococcus aureus, ATCC29213, S. aureus ATCC 29213", "result": 0.06, "unit": "µg/mL"}]}]}
